Source: ChEMBL document CHEMBL1201862, “PubChem BioAssay data set” (2004)
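Tested at 5 concentrations; 48 h exposure; 96-well plates; endpoints linearly interpolated, else capped at highest concentration. GI50: concentration for 50% inhibition of growth.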 The source made the active and inactive calls. Rule as the data show it: active = GI50 up to about 1.1 µM and inactive = higher.

Columns and labels:
Assay in all cases: DTP human tumour cell line panel, 48 h
786-0 = test system: 786-0
A498 = test system: A498
COLO 205 = test system: COLO 205
HCT-116 = test system: HCT-116
HOP-62 = test system: HOP-62
HT-29 = test system: HT-29
KM12 = test system: KM12
OVCAR-3 = test system: OVCAR-3
OVCAR-8 = test system: OVCAR-8
RPMI-8226 = test system: RPMI-8226
RXF 393 = test system: RXF 393
SF-268 = test system: SF-268
SK-MEL-2 = test system: SK-MEL-2
SW-620 = test system: SW-620
TK-10 = test system: TK-10
UACC-257 = test system: UACC-257
UACC-62 = test system: UACC-62
Malme-3M = test system: Malme-3M

Row | SMILES | GI50 (786-0) | GI50 (A498) | GI50 (COLO 205) | GI50 (HCT-116) | GI50 (HOP-62) | GI50 (HT-29) | GI50 (KM12) | GI50 (OVCAR-3) | GI50 (OVCAR-8) | GI50 (RPMI-8226) | GI50 (RXF 393) | GI50 (SF-268) | GI50 (SK-MEL-2) | GI50 (SW-620) | GI50 (TK-10) | GI50 (UACC-257) | GI50 (UACC-62) | GI50 (Malme-3M)
1 | NC(=O)c1cn(Cc2ccccc2)c(=O)n1Cc1ccccc1 | > 100 µM (inactive) | > 100 µM (inactive) | > 100 µM (inactive) | > 100 µM (inactive) | > 100 µM (inactive) | > 100 µM (inactive) | > 100 µM (inactive) | > 100 µM (inactive) | > 100 µM (inactive) | > 100 µM (inactive) | > 100 µM (inactive) | > 100 µM (inactive) | > 100 µM (inactive) | > 100 µM (inactive) | > 100 µM (inactive) | > 100 µM (inactive) | > 100 µM (inactive) | 
2 | Oc1nnc2c(-c3ccccc3)n[nH]c2n1 | 15.5 µM (inactive) | > 100 µM (inactive) | > 100 µM (inactive) | > 100 µM (inactive) | > 100 µM (inactive) | > 100 µM (inactive) | > 100 µM (inactive) | > 100 µM (inactive) | > 100 µM (inactive) | > 100 µM (inactive) | > 100 µM (inactive) | > 100 µM (inactive) | > 100 µM (inactive) | > 100 µM (inactive) | > 100 µM (inactive) | > 100 µM (inactive) | > 100 µM (inactive) | 
3 | CC1=C(NC(=O)C(=O)NNC(=O)c2ccncc2)C(=O)c2ccccc2C1=O | 18.2 µM (inactive) | 23.8 µM (inactive) | 17.3 µM (inactive) | 11.4 µM (inactive) | 17.5 µM (inactive) | 15.5 µM (inactive) | 15.3 µM (inactive) | 4.08 µM (inactive) | 18.4 µM (inactive) | 19.5 µM (inactive) | 15.4 µM (inactive) | 23.6 µM (inactive) | 2.3 µM (inactive) | 15.7 µM (inactive) | 45.2 µM (inactive) | 9.77 µM (inactive) | 2.52 µM (inactive) | 5.26 µM (inactive)
4 | O=C1C=C(c2ccccc2)NC1(c1ccccc1)c1cc(-c2ccccc2)[nH]c1-c1ccccc1 (stereo unspecified) | > 100 µM (inactive) | > 100 µM (inactive) | > 100 µM (inactive) | > 100 µM (inactive) | 2.21 µM (inactive) | > 100 µM (inactive) | > 100 µM (inactive) | > 100 µM (inactive) | > 100 µM (inactive) |  | 0.182 µM (active) |  | > 100 µM (inactive) | > 100 µM (inactive) |  | > 100 µM (inactive) | > 100 µM (inactive) | 
5 | Oc1cccc(C2SCc3nc4ccccc4n32)c1 (stereo unspecified) | > 100 µM (inactive) | 13.2 µM (inactive) | > 100 µM (inactive) | 67.9 µM (inactive) |  | > 100 µM (inactive) | 73.3 µM (inactive) | 45.6 µM (inactive) | 96.2 µM (inactive) | 39.3 µM (inactive) | 78.7 µM (inactive) | 73.6 µM (inactive) | 76 µM (inactive) | > 100 µM (inactive) | > 100 µM (inactive) | 31.7 µM (inactive) | 77.1 µM (inactive) | 41.1 µM (inactive)
6 | COC(=O)NC12CC3CC(CC(F)(C3)C1)C2 | > 100 µM (inactive) | > 100 µM (inactive) | > 100 µM (inactive) | > 100 µM (inactive) | > 100 µM (inactive) | > 100 µM (inactive) | > 100 µM (inactive) | > 100 µM (inactive) | > 100 µM (inactive) | > 100 µM (inactive) | > 100 µM (inactive) |  | > 100 µM (inactive) | > 100 µM (inactive) | > 100 µM (inactive) | > 100 µM (inactive) | > 100 µM (inactive) | > 100 µM (inactive)
7 | Cc1c(C(=O)/C=C/c2ccc3c(c2)OCO3)[n+]([O-])c2ccccc2[n+]1[O-] | 42.1 µM (inactive) | 20.4 µM (inactive) | 27.7 µM (inactive) | 29.4 µM (inactive) | > 100 µM (inactive) | 26.4 µM (inactive) | 31.9 µM (inactive) | 24.2 µM (inactive) | 23.8 µM (inactive) | 27 µM (inactive) | 23 µM (inactive) | 52.6 µM (inactive) |  | 37.2 µM (inactive) | 36.1 µM (inactive) | 31 µM (inactive) | 27.2 µM (inactive) | 89.5 µM (inactive)
8 | OCC(O)C(OC1OC(CO)C(O)C(O)C1O)c1nn(-c2ccc(Cl)cc2)c2nc3cc(Cl)ccc3nc12 (stereo unspecified) | > 100 µM (inactive) | > 100 µM (inactive) |  | > 100 µM (inactive) | > 100 µM (inactive) | > 100 µM (inactive) | > 100 µM (inactive) | > 100 µM (inactive) | > 100 µM (inactive) | > 100 µM (inactive) | > 100 µM (inactive) | > 100 µM (inactive) |  |  | > 100 µM (inactive) | > 100 µM (inactive) | > 100 µM (inactive) | > 100 µM (inactive)
9 | COc1cc2ccc(C(=O)O)cc2cc1OC | > 100 µM (inactive) | 49.7 µM (inactive) | > 100 µM (inactive) | > 100 µM (inactive) | > 100 µM (inactive) | > 100 µM (inactive) | > 100 µM (inactive) | > 100 µM (inactive) | > 100 µM (inactive) | > 100 µM (inactive) | > 100 µM (inactive) | > 100 µM (inactive) | > 100 µM (inactive) | > 100 µM (inactive) | > 100 µM (inactive) | > 100 µM (inactive) | > 100 µM (inactive) | > 100 µM (inactive)
10 | CCOC(=O)C(=O)Nc1ccccc1C | > 100 µM (inactive) | > 100 µM (inactive) | > 100 µM (inactive) | > 100 µM (inactive) | > 100 µM (inactive) |  |  |  | > 100 µM (inactive) | > 100 µM (inactive) | > 100 µM (inactive) | > 100 µM (inactive) | > 100 µM (inactive) | > 100 µM (inactive) | > 100 µM (inactive) |  | > 100 µM (inactive) | > 100 µM (inactive)
11 | CCCNC(=O)C1C(=O)C(=O)N(CCC)C1=O (stereo unspecified) | > 100 µM (inactive) | > 100 µM (inactive) | > 100 µM (inactive) | > 100 µM (inactive) | > 100 µM (inactive) | > 100 µM (inactive) | > 100 µM (inactive) | > 100 µM (inactive) | > 100 µM (inactive) | > 100 µM (inactive) | > 100 µM (inactive) | > 100 µM (inactive) | > 100 µM (inactive) | > 100 µM (inactive) | > 100 µM (inactive) | > 100 µM (inactive) | > 100 µM (inactive) | > 100 µM (inactive)
12 | O=C(OCc1ccccc1)c1ccccc1-c1c2ccc(=O)cc-2oc2cc(OCc3ccccc3)ccc12 | 15.1 µM (inactive) | 25.5 µM (inactive) | 18.6 µM (inactive) | 9.46 µM (inactive) |  | 18.4 µM (inactive) | 12.7 µM (inactive) | 17.6 µM (inactive) | 12.1 µM (inactive) | 5.48 µM (inactive) | 14.4 µM (inactive) | 14.1 µM (inactive) | 18.7 µM (inactive) | 12.1 µM (inactive) |  | 8.95 µM (inactive) | 10.2 µM (inactive) | 12.1 µM (inactive)
13 | CCCCOC(=O)/C(CC(=O)C=C(C)C)=N\NS(=O)(=O)c1ccc(C)cc1 | > 100 µM (inactive) | > 100 µM (inactive) | 46.1 µM (inactive) | > 100 µM (inactive) | > 100 µM (inactive) | > 100 µM (inactive) | > 100 µM (inactive) | > 100 µM (inactive) | > 100 µM (inactive) | > 100 µM (inactive) | > 100 µM (inactive) | > 100 µM (inactive) | > 100 µM (inactive) |  | > 100 µM (inactive) | > 100 µM (inactive) | > 100 µM (inactive) | > 100 µM (inactive)
14 | Cc1cccc(N(CC(=O)O)S(=O)(=O)c2ccccc2)c1 | > 100 µM (inactive) | > 100 µM (inactive) | > 100 µM (inactive) |  |  | > 100 µM (inactive) | > 100 µM (inactive) | > 100 µM (inactive) | > 100 µM (inactive) | > 100 µM (inactive) | > 100 µM (inactive) | > 100 µM (inactive) | > 100 µM (inactive) | > 100 µM (inactive) | > 100 µM (inactive) | > 100 µM (inactive) | > 100 µM (inactive) | > 100 µM (inactive)
15 | O=C1C(Cl)=C(Cl)C(=O)N1c1cccc(C(F)(F)F)c1 | > 100 µM (inactive) | > 100 µM (inactive) | > 79.3 µM (inactive) | > 100 µM (inactive) | > 100 µM (inactive) | > 100 µM (inactive) | > 100 µM (inactive) | > 100 µM (inactive) | > 100 µM (inactive) | > 65.6 µM (inactive) | 34 µM (inactive) | > 100 µM (inactive) | > 100 µM (inactive) | > 100 µM (inactive) | > 100 µM (inactive) | > 100 µM (inactive) | > 100 µM (inactive) | > 100 µM (inactive)
16 | Cc1cc(=O)n(-c2c(C)cccc2Cl)c(/C=C(\O)c2ccncc2)n1 | > 100 µM (inactive) | > 100 µM (inactive) | > 100 µM (inactive) | > 100 µM (inactive) | > 100 µM (inactive) | > 100 µM (inactive) | 48.5 µM (inactive) | > 100 µM (inactive) | > 100 µM (inactive) |  | > 100 µM (inactive) | > 100 µM (inactive) | > 100 µM (inactive) | > 100 µM (inactive) | > 100 µM (inactive) | > 100 µM (inactive) | > 100 µM (inactive) | > 100 µM (inactive)
